Reference: BindingDB's records for doi:10.1016/s0960-894x(02)00131-2 (Shire Biochem, 2002)

Each compound was assayed against Prothrombin/thrombin (Homo sapiens) (UniProt P00734) (assay: Inhibition of amidolytic activity of thrombin).
Work on N=C(N)N1CCC(CNC(=O)[C@@H]2CC[C@H]3CN(C(=O)CCc4ccccc4)CC(=O)N32)CC1 [(6S,8aS)-4-Oxo-2-(3-phenyl-propionyl)-octahydro-pyrrolo[1,2-a]pyrazine-6-carboxylic acid (1-carbamimidoyl-piperidin-4-ylmethyl)-amide] yielded a Ki of 180 nM.
In the case of Nc1ccc(CNC(=O)[C@@H]2CC[C@H]3CN(S(=O)(=O)CC(c4ccccc4)c4ccccc4)CC(=O)N32)cn1 [(6S,8aS)-2-(2,2-Diphenyl-ethanesulfonyl)-4-oxo-octahydro-pyrrolo[1,2-a]pyrazine-6-carboxylic acid (6-amino-pyridin-3-ylmethyl)-amide], the Ki is reported as 35 nM.
In the case of N=C(NO)N1CCC(CNC(=O)[C@@H]2CC[C@H]3CN(S(=O)(=O)CC(c4ccccc4)c4ccccc4)CC(=O)N32)CC1 [(6S,8aS)-2-(2,2-Diphenyl-ethanesulfonyl)-4-oxo-octahydro-pyrrolo[1,2-a]pyrazine-6-carboxylic acid [1-(N-hydroxycarbamimidoyl)-piperidin-4-ylmethyl]-amide], the Ki is reported as 2 nM.
N[C@H]1CC[C@H](CNC(=O)[C@@H]2CC[C@H]3CN(S(=O)(=O)CC(c4ccccc4)c4ccccc4)CC(=O)N32)CC1 [(6S,8aS)-2-(2,2-Diphenyl-ethanesulfonyl)-4-oxo-octahydro-pyrrolo[1,2-a]pyrazine-6-carboxylic acid (4-amino-cyclohexylmethyl)-amide] gave a Ki of 5 nM.
For N=C(N)c1ccc2c(c1)CCC2NC(=O)[C@@H]1CC[C@H]2CN(S(=O)(=O)C(c3ccccc3)c3ccccc3)CC(=O)N21 (stereo partly drawn) [(6S,8aS)-2-(Diphenyl-methanesulfonyl)-4-oxo-octahydro-pyrrolo[1,2-a]pyrazine-6-carboxylic acid (5-carbamimidoyl-indan-1-yl)-amide], the Ki was 75 nM.
N=C(NO)N1CCC(CNC(=O)[C@@H]2CC[C@H]3CN(C(=O)CC(c4ccccc4)c4ccccc4)CC(=O)N32)CC1 [(6S,8aS)-2-(3,3-Diphenyl-propionyl)-4-oxo-octahydro-pyrrolo[1,2-a]pyrazine-6-carboxylic acid [1-(N-hydroxycarbamimidoyl)-piperidin-4-ylmethyl]-amide] was tested, and the Ki was 25 nM.
In the case of Nc1ncc(CCNC(=O)[C@@H]2CC[C@H]3CN(S(=O)(=O)C(c4ccccc4)c4ccccc4)CC(=O)N32)[nH]1 [(6S,8aS)-2-(Diphenyl-methanesulfonyl)-4-oxo-octahydro-pyrrolo[1,2-a]pyrazine-6-carboxylic acid [2-(2-amino-1H-imidazol-4-yl)-ethyl]-amide], the Ki is reported as 135 nM.
N=C(N)N1CCC(CNC(=O)[C@@H]2CC[C@H]3CN(S(=O)(=O)CC(c4ccccc4)c4ccccc4)CC(=O)N32)CC1 [(6S,8aS)-2-(2,2-Diphenyl-ethanesulfonyl)-4-oxo-octahydro-pyrrolo[1,2-a]pyrazine-6-carboxylic acid (1-carbamimidoyl-piperidin-4-ylmethyl)-amide] showed a Ki of 8 nM.
Work on N[C@H]1CC[C@H](CNC(=O)[C@@H]2CC[C@H]3CN(S(=O)(=O)C(c4ccccc4)c4ccccc4)CC(=O)N32)CC1 [(6S,8aS)-2-(Diphenyl-methanesulfonyl)-4-oxo-octahydro-pyrrolo[1,2-a]pyrazine-6-carboxylic acid (4-amino-cyclohexylmethyl)-amide] yielded a Ki of 5 nM.
In the case of N=C(NO)N1CCC(CNC(=O)[C@@H]2CC[C@H]3CN(S(=O)(=O)C(c4ccccc4)c4ccccc4)CC(=O)N32)CC1 [(6S,8aS)-2-(Diphenyl-methanesulfonyl)-4-oxo-octahydro-pyrrolo[1,2-a]pyrazine-6-carboxylic acid [1-(N-hydroxycarbamimidoyl)-piperidin-4-ylmethyl]-amide], the Ki is reported as 2 nM.
For N=C(N)c1ccc(CNC(=O)[C@@H]2CC[C@H]3CN(S(=O)(=O)C(c4ccccc4)c4ccccc4)CC(=O)N32)cc1 [(6S,8aS)-2-(Diphenyl-methanesulfonyl)-4-oxo-octahydro-pyrrolo[1,2-a]pyrazine-6-carboxylic acid 4-carbamimidoyl-benzylamide], the Ki was 1 nM.
Work on Cc1cc(C(=N)N)ccc1CNC(=O)[C@@H]1CC[C@H]2CN(S(=O)(=O)C(c3ccccc3)c3ccccc3)CC(=O)N21 [(6S,8aS)-2-(Diphenyl-methanesulfonyl)-4-oxo-octahydro-pyrrolo[1,2-a]pyrazine-6-carboxylic acid 4-carbamimidoyl-2-methyl-benzylamide] yielded a Ki of 2 nM.
With N=C(N)[C@H]1CC[C@H](CNC(=O)[C@@H]2CC[C@H]3CN(S(=O)(=O)C(c4ccccc4)c4ccccc4)CC(=O)N32)CC1 [(6S,8aS)-2-(Diphenyl-methanesulfonyl)-4-oxo-octahydro-pyrrolo[1,2-a]pyrazine-6-carboxylic acid (4-carbamimidoyl-cyclohexylmethyl)-amide] the Ki was 2 nM.
In the case of N=C(N)c1ccc(CNC(=O)[C@@H]2CC[C@H]3CN(S(=O)(=O)CC(c4ccccc4)c4ccccc4)CC(=O)N32)cc1 [(6S,8aS)-2-(2,2-Diphenyl-ethanesulfonyl)-4-oxo-octahydro-pyrrolo[1,2-a]pyrazine-6-carboxylic acid 4-carbamimidoyl-benzylamide], the Ki is reported as 1 nM.
In the case of N=C(NO)N1CCC(CNC(=O)[C@@H]2CC[C@H]3CN(S(=O)(=O)CCc4ccccc4)CC(=O)N32)CC1 [(6S,8aS)-4-Oxo-2-(2-phenyl-ethanesulfonyl)-octahydro-pyrrolo[1,2-a]pyrazine-6-carboxylic acid [1-(N-hydroxycarbamimidoyl)-piperidin-4-ylmethyl]-amide], the Ki is reported as 14 nM.
Compound N=C(N)N1CCC(CNC(=O)[C@@H]2CC[C@H]3CN(S(=O)(=O)C(c4ccccc4)c4ccccc4)CC(=O)N32)CC1 [(6S,8aS)-2-(Diphenyl-methanesulfonyl)-4-oxo-octahydro-pyrrolo[1,2-a]pyrazine-6-carboxylic acid (1-carbamimidoyl-piperidin-4-ylmethyl)-amide] has a Ki of 9 nM.
With O=C(NCc1ccc2nc[nH]c2c1)[C@@H]1CC[C@H]2CN(S(=O)(=O)C(c3ccccc3)c3ccccc3)CC(=O)N21 [(6S,8aS)-2-(Diphenyl-methanesulfonyl)-4-oxo-octahydro-pyrrolo[1,2-a]pyrazine-6-carboxylic acid (1H-benzoimidazol-5-ylmethyl)-amide] the Ki was 75 nM.
Compound Cc1nc(N)ccc1CNC(=O)[C@@H]1CC[C@H]2CN(S(=O)(=O)C(c3ccccc3)c3ccccc3)CC(=O)N21 [(6S,8aS)-2-(Diphenyl-methanesulfonyl)-4-oxo-octahydro-pyrrolo[1,2-a]pyrazine-6-carboxylic acid (6-amino-2-methyl-pyridin-3-ylmethyl)-amide] has a Ki of 10 nM.
Work on Cc1nc(N)ccc1CNC(=O)[C@@H]1CC[C@H]2CN(S(=O)(=O)CC(c3ccccc3)c3ccccc3)CC(=O)N21 [(6S,8aS)-2-(2,2-Diphenyl-ethanesulfonyl)-4-oxo-octahydro-pyrrolo[1,2-a]pyrazine-6-carboxylic acid (6-amino-2-methyl-pyridin-3-ylmethyl)-amide] yielded a Ki of 48 nM.
